Results from patent US20140057961A1, “SIN3B COMPLEX INHIBITION AND USE THEREOF IN THE PREVENTION OF PRO-ONCOGENIC INFLAMMATION AND CANCER” (New York University, priority 2012, published 2014).

Experiments:
Sin3B expression = conditions: van Oevelen, et al. (2008) Mol. Cell. 32:359-370; cited from earlier work
[1] = system: IL-1α expression in BxPc3 human PDAC cells; assay: Quantitative RT-PCR for IL-1α mRNA expression in BxPc3 pancreatic cancer cells; assay type: cell-based; conditions: BxPc3 cells treated 48 hours with 0.2 μM or 1 μM, relative to DMSO; FIG. 5, p<0.05
Method: Quantitative PCR for Sin3B (*p<0.005) and IL-1α (*p<0.05) mRNA expression in BxPc3 pancreatic cancer cell lines. BxPc3 were infected with an empty vector or a shRNA against Sin3B (shSin3B). ShSin3B mRNA expressions are relative to the empty vector expression.
(§1) Quantitative PCR for IL-1α and IL-6 mRNA expression in BxPc3 pancreatic cancer cell lines. BxPc3 has been treated 48 hours with vehicle DMSO, 0.2 μM (TSA 0.2) or 1 μM (TSA 1) of Trichostatin A. Sin3B and IL-1α mRNA expressions are relative to the expressions in DMSO (*p<0.05).
(§2) BxPc3 human pancreatic cancer cell lines are known in the art and available from American Type Culture Collection (ATCC, Manassas, Va.). Cells were cultured in RPMI, 10% FBS, Sodium Pyruvate, HEPES and Penicillin/[…]. The cultures were maintained in 5% CO2 at 37° C.
DNA sequences encoding shRNAs for Sin3B (shSin3B) were selected and cloned into the PLKO retroviral vector (Open Biosystem). BxPc3 cells were infected with shSin3B or PLKO for 3 days and selected in puromycin for 5 days. The level of Sin3B knockdown by shSin3B was determined by quantitative RT-PCR.
Extraction of total RNA from Pancreas and PDECs was performed using RNEASY mini kit (QIAGEN). […] Quantitative RT-PCR analyses were done using the SYBR Green method and the samples were run on the BIO-RAD I cycler MYIQ. […]

[2] = system: IL-6 expression in BxPc3 human PDAC cells; assay: Quantitative RT-PCR for IL-6 mRNA expression in BxPc3 pancreatic cancer cells; assay type: cell-based; conditions: BxPc3 cells treated 48 hours with 0.2 μM or 1 μM, relative to DMSO; FIG. 5
Method: as §1, §2
Extraction of total RNA from Pancreas and PDECs was performed using RNEASY mini kit (QIAGEN). For the pancreas, a piece was snap-frozen, ground, and the frozen powder was added to the RNEASY lysis buffer. Reverse transcription was done using Moloney murine leukemia virus polymerase and oligo(dT) primers. RT-PCR analyses were done using Tag DNA polymerase (5 Prime) and dNTP (Promega). Quantitative RT-PCR analyses were done using the SYBR Green method and the samples were run on the BIO-RAD I cycler MYIQ. Expression levels were normalized to GAPDH. Results were reported as relative to the abundance of mSin3B^+/− or mSin3^B+/− KRas^G12D transcripts. […]

Compound	Sin3B expression (Sin3B expression)	IL-1α expression after TSA treatment [1]	IL-6 expression after TSA treatment [2]
GCAAAGCGGUCCCUGUUUAUU (listed as RNA, chemistry not given here) [SEQ ID NO:6]	inhibit Sin3B expression		
GGCAAUGGGUCGUGCGAGAUU (chemistry not given here) [SEQ ID NO:7]	inhibit Sin3B expression		
CC(/C=C/C(=O)NO)=C\[C@@H](C)C(=O)c1ccc(N(C)C)cc1 [trichostatin A]		specific and dose-dependent down-regulation	not significantly affected
